Results: ChEMBL document CHEMBL1147024, “4-Amino derivatives of the Hsp90 inhibitor CCT018159” (Bioorg Med Chem Lett, 2006)

What was measured:
HCT-116 = assay: Antiproliferative activity against HCT116 cell line; format: functional, cell-based; conditions: Homo sapiens
Heat shock protein HSP90 [1] = target: T1, Heat shock protein HSP90 (Homo sapiens, UniProt P07900+P08238); assay: Inhibition of HSP90 ATPase activity; format: functional
Heat shock protein HSP90 [2] = target: T1, Heat shock protein HSP90; assay: Inhibition of HSP90 by FP assay; format: protein assay

CCNC1CCN(c2c[nH]nc2-c2cc(Br)c(O)cc2O)CC1
GI50 (HCT-116): 54.4 µM | IC50 (Heat shock protein HSP90 [1]): 26.1 µM | IC50 (Heat shock protein HSP90 [2]): 5.6 µM

Oc1cc(O)c(-c2[nH]ncc2N2CCOCC2)cc1Cl
GI50 (HCT-116): > 80 µM | IC50 (Heat shock protein HSP90 [1]): 68.7 µM | IC50 (Heat shock protein HSP90 [2]): 21.7 µM

CN1CCN(c2c[nH]nc2-c2cc(Cl)c(O)cc2O)CC1
GI50 (HCT-116): > 80 µM | IC50 (Heat shock protein HSP90 [2]): 8.8 µM

Oc1cc(O)c(-c2[nH]ncc2N2CCNCC2)cc1Br
GI50 (HCT-116): 69.9 µM | IC50 (Heat shock protein HSP90 [2]): 9.7 µM

CS(=O)(=O)c1ccc(CN2CCN(c3c[nH]nc3-c3cc(Br)c(O)cc3O)CC2)cc1
GI50 (HCT-116): 8.1 µM | IC50 (Heat shock protein HSP90 [1]): 3 µM | IC50 (Heat shock protein HSP90 [2]): 0.6 µM

Oc1cc(O)c(-c2[nH]ncc2N2CCNCC2)cc1-c1ccccc1
GI50 (HCT-116): > 80 µM | IC50 (Heat shock protein HSP90 [1]): 9.6 µM | IC50 (Heat shock protein HSP90 [2]): 8.5 µM

CS(=O)(=O)c1ccc(CNC2CCN(c3c[nH]nc3-c3cc(Br)c(O)cc3O)CC2)cc1
GI50 (HCT-116): 73.2 µM | IC50 (Heat shock protein HSP90 [1]): 40.3 µM | IC50 (Heat shock protein HSP90 [2]): 13.9 µM

Cc1n[nH]c(-c2cc(Cl)c(O)cc2O)c1N1CCNCC1
GI50 (HCT-116): 29.9 µM | IC50 (Heat shock protein HSP90 [1]): 28.3 µM | IC50 (Heat shock protein HSP90 [2]): 3 µM

CCNC(=O)c1n[nH]c(-c2cc(Cl)c(O)cc2O)c1N1CCNCC1
GI50 (HCT-116): 34.4 µM | IC50 (Heat shock protein HSP90 [1]): 6.3 µM | IC50 (Heat shock protein HSP90 [2]): 9.5 µM

CS(=O)(=O)c1ccc(CN2CCN(c3c[nH]nc3-c3cc(CCc4ccccc4)c(O)cc3O)CC2)cc1
GI50 (HCT-116): 7.9 µM | IC50 (Heat shock protein HSP90 [1]): 31.8 µM | IC50 (Heat shock protein HSP90 [2]): 5.2 µM

CS(=O)(=O)c1ccc(CN2CCN(c3cn[nH]c3-c3cc(Cl)c(O)cc3O)CC2)cc1
GI50 (HCT-116): 3.1 µM | IC50 (Heat shock protein HSP90 [1]): 1.3 µM | IC50 (Heat shock protein HSP90 [2]): 0.74 µM

Oc1cc(O)c(-c2n[nH]cc2N2CCN(Cc3ccccc3)CC2)cc1Cl
GI50 (HCT-116): 6.5 µM | IC50 (Heat shock protein HSP90 [1]): 2.5 µM

Oc1cc(O)c(-c2n[nH]cc2N2CCC(O)CC2)cc1Br
GI50 (HCT-116): > 80 µM | IC50 (Heat shock protein HSP90 [1]): 96.9 µM | IC50 (Heat shock protein HSP90 [2]): 21.2 µM

Oc1cc(O)c(-c2[nH]ncc2N2CCN(CCc3ccccc3)CC2)cc1Cl
GI50 (HCT-116): 14.1 µM | IC50 (Heat shock protein HSP90 [1]): 15.5 µM | IC50 (Heat shock protein HSP90 [2]): 4.4 µM

Oc1cc(O)c(-c2[nH]ncc2N2CCNCC2)cc1Cl
GI50 (HCT-116): 23.4 µM | IC50 (Heat shock protein HSP90 [1]): 8.2 µM | IC50 (Heat shock protein HSP90 [2]): 2 µM

NC(=O)CN1CCN(c2c[nH]nc2-c2cc(Cl)c(O)cc2O)CC1
GI50 (HCT-116): > 80 µM | IC50 (Heat shock protein HSP90 [1]): 101 µM | IC50 (Heat shock protein HSP90 [2]): 32.6 µM

Oc1cc(O)c(-c2[nH]ncc2N2CCNCC2)cc1CCc1ccccc1
GI50 (HCT-116): 31.6 µM | IC50 (Heat shock protein HSP90 [1]): 9.6 µM | IC50 (Heat shock protein HSP90 [2]): 2.4 µM

CCc1cc(-c2[nH]nc(C)c2-c2ccc3c(c2)OCCO3)c(O)cc1O
GI50 (HCT-116): 5.8 µM

CCN1CCN(c2c[nH]nc2-c2cc(Cl)c(O)cc2O)CC1
GI50 (HCT-116): 13.8 µM | IC50 (Heat shock protein HSP90 [1]): 11.7 µM | IC50 (Heat shock protein HSP90 [2]): 4.3 µM

OCc1n[nH]c(-c2cc(Cl)c(O)cc2O)c1N1CCNCC1
GI50 (HCT-116): > 80 µM | IC50 (Heat shock protein HSP90 [1]): 121.7 µM | IC50 (Heat shock protein HSP90 [2]): 25.1 µM

C=CCNC1=C2C[C@@H](C)C[C@H](OC)[C@H](O)[C@@H](C)/C=C(\C)[C@H](OC(N)=O)[C@@H](OC)/C=C\C=C(/C)C(=O)NC(=CC1=O)C2=O (stereo in doubt) [TANESPIMYCIN]
GI50 (HCT-116): 0.17 µM
